Measurements taken from patent US9204653B2, “5-fluoro pyrimidine derivatives” (DOW AGROSCIENCES LLC, priority 2008, dated 2015).
Read-outs that look alike come from different tables or passages of the source.

Tested on: Mycosphaerella graminicola; Anamorph: Septoria tritici; Bayer Code SEPTTR
Experiment: Leaf blotch of wheat, foliar fungicide treatment, one day protectant (1DP) or three day curative (3DC)
Type: in vivo, Septoria tritici on wheat plants (variety Yuma)
Conditions: Zymoseptoria tritici; for pest or weed control at 50 ppm / pest or weed control at 200 ppm: % disease control rating
[1] = 24 h, one day protectant (1DP), 25 ppm (first 1DP column), percent control rating, read-out: SETTTR 1DP 25 ppm
[2] = 24 h, one day protectant (1DP), 25 ppm as printed (second 1DP column), percent control rating, read-out: SETTTR 1DP 25 ppm
[3] = 72 h, three day curative (3DC), 25 ppm, percent control rating, read-out: SEPTTR 3DC 25 ppm
[4] = 72 h, three day curative (3DC), percent control rating, read-out: SEPTTR 3DC 100 ppm
[5] = 24 h, one day protectant, 25 ppm, rating of percent disease control, read-out: SETTTR 1DP 25 ppm
[6] = 24 h, one day protectant, rating of percent disease control, read-out: SEPTTR 1DP 100 ppm
[7] = 72 h, three day curative, 25 ppm, rating of percent disease control, read-out: SEPTTR 3DC 25 ppm
[8] = 72 h, three day curative, rating of percent disease control, read-out: SEPTTR 3DC 100 ppm
[9] = 24 h, one day protectant (1DP), 25 ppm, rating of percent disease control, read-out: SETTTR 1DP 25 ppm
[10] = 24 h, one day protectant (1DP), rating of percent disease control, read-out: SEPTTR 1DP 100 ppm
[11] = 72 h, three day curative (3DC), 25 ppm, rating of percent disease control, read-out: SEPTTR 3DC 25 ppm
[12] = 72 h, three day curative (3DC), rating of percent disease control, read-out: SEPTTR 3DC 100 ppm
[13] = 24 h, one day protectant (1DP), 25 ppm, percent disease control rating, read-out: SETTTR 1DP 25 ppm
[14] = 24 h, one day protectant (1DP), percent disease control rating, read-out: SEPTTR 1DP 100 ppm
[15] = 72 h, three day curative (3DC), 25 ppm, percent disease control rating, read-out: SEPTTR 3DC 25 ppm
[16] = 72 h, three day curative (3DC), percent disease control rating, read-out: SEPTTR 3DC 100 ppm

**Q.** `Fc1cnc(OCc2ccco2)nc1N1CCOCC1` [Compound 944] was tested. Which pest or weed control at 50 ppm (24 h, one day protectant) did it give?
**A.** 0 to 25%

**Q.** And the pest or weed control at 200 ppm (24 h, one day protectant)?
**A.** 0 to 25%

**Q.** Which pest or weed control at 25 ppm [1] does the source give for `COc1ncc(F)c(NNc2ccc(Cl)nn2)n1` [Compound 1048] here?
**A.** 0 to 25%

**Q.** What about the pest or weed control at 25 ppm [2] of the same compound?
**A.** 0 to 25%

**Q.** What about the pest or weed control at 25 ppm [3] of the same compound?
**A.** 0 to 25%

**Q.** What about the pest or weed control at 100 ppm [4] of the same compound?
**A.** 0 to 25%

**Q.** With `Fc1cnc(OCc2c(Cl)cccc2Cl)nc1NC1CC1` [Compound 877] as the compound, how does the pest or weed control at 200 ppm (24 h, one day protectant) read?
**A.** 76 to 100%

**Q.** What does the source list for `Fc1ccc(COc2ncc(F)c(NNc3cccc(F)n3)n2)cc1` [Compound 1047]?
**A.** pest or weed control at 25 ppm [1]: 0 to 25%; pest or weed control at 25 ppm [2]: 0 to 25%; pest or weed control at 25 ppm [3]: 26 to 50%; pest or weed control at 100 ppm [4]: 26 to 50%

**Q.** With `O=C(CCl)Nc1nc(OCc2ccc(F)cc2)ncc1F` [Compound 672] as the compound, how does the pest or weed control at 25 ppm [5] read?
**A.** 76 to 100%

**Q.** What about the pest or weed control at 100 ppm [6] of the same compound?
**A.** 76 to 100%

**Q.** What about the pest or weed control at 25 ppm [7] of the same compound?
**A.** 76 to 100%

**Q.** And the pest or weed control at 100 ppm [8]?
**A.** 76 to 100%

**Q.** For `COc1cccc(COc2ncc(F)c(NNc3nccc(C(F)(F)F)n3)n2)c1` [Compound 1045], which pest or weed control at 25 ppm [1] is on record?
**A.** 0 to 25%

**Q.** What about the pest or weed control at 25 ppm [2] of the same compound?
**A.** 0 to 25%

**Q.** And the pest or weed control at 25 ppm [3]?
**A.** 0 to 25%

**Q.** And the pest or weed control at 100 ppm [4]?
**A.** 0 to 25%

**Q.** How did the pest or weed control at 25 ppm [9] turn out when `Nc1nc(OCc2cccc(OC(F)(F)F)c2)ncc1F` [Compound 460] was run?
**A.** 76 to 100%

**Q.** And the pest or weed control at 100 ppm [10]?
**A.** 76 to 100%

**Q.** And the pest or weed control at 25 ppm [11]?
**A.** 76 to 100%

**Q.** And the pest or weed control at 100 ppm [12]?
**A.** 76 to 100%

**Q.** Which pest or weed control at 25 ppm [9] does the source give for `CC(C)c1ccc(COc2ncc(F)c(N)n2)cc1` [Compound 197] here?
**A.** 51 to 75%

**Q.** What about the pest or weed control at 100 ppm [10] of the same compound?
**A.** 76 to 100%

**Q.** What about the pest or weed control at 25 ppm [11] of the same compound?
**A.** 51 to 75%

**Q.** And the pest or weed control at 100 ppm [12]?
**A.** 76 to 100%

**Q.** Which results are given for `Fc1cnc(OCc2ccc(Cl)cc2)nc1N1CCOCC1` [Compound 925]?
**A.** pest or weed control at 50 ppm (24 h, one day protectant): 0 to 25%; pest or weed control at 200 ppm (24 h, one day protectant): 0 to 25%

**Q.** `COc1ccccc1COc1ncc(F)c(NC(=O)Nc2ccccc2F)n1` [Compound 329] was tested. Which pest or weed control at 25 ppm [9] did it give?
**A.** 0 to 25%

**Q.** And the pest or weed control at 100 ppm [10]?
**A.** 0 to 25%

**Q.** And the pest or weed control at 25 ppm [11]?
**A.** 0 to 25%

**Q.** And the pest or weed control at 100 ppm [12]?
**A.** 0 to 25%

**Q.** What does the source list for `Fc1ccc(COc2ncc(F)c(NCc3ccc(Cl)cc3)n2)cc1F` [Compound 851]?
**A.** pest or weed control at 50 ppm (24 h, one day protectant): 76 to 100%; pest or weed control at 200 ppm (24 h, one day protectant): 76 to 100%

**Q.** Which pest or weed control at 25 ppm [13] does the source give for `CN(C)/C=N/c1nc(OC(=O)C(C)(C)C)ncc1F` [Compound 130] here?
**A.** 76 to 100%

**Q.** And the pest or weed control at 100 ppm [14]?
**A.** 76 to 100%

**Q.** What about the pest or weed control at 25 ppm [15] of the same compound?
**A.** 76 to 100%

**Q.** And the pest or weed control at 100 ppm [16]?
**A.** 76 to 100%

**Q.** Which pest or weed control at 25 ppm [1] does the source give for `CC(C)(C)C(=O)OCOc1ncc(F)c(N)n1` [Compound 1119] here?
**A.** 76 to 100%

**Q.** What about the pest or weed control at 25 ppm [2] of the same compound?
**A.** 76 to 100%

**Q.** And the pest or weed control at 25 ppm [3]?
**A.** 76 to 100%

**Q.** What about the pest or weed control at 100 ppm [4] of the same compound?
**A.** 76 to 100%

**Q.** How did the pest or weed control at 25 ppm [9] turn out when `N#Cc1cccc(COc2ncc(F)c(NC(=O)NCc3ccccc3)n2)c1` [Compound 183] was run?
**A.** 0 to 25%

**Q.** What about the pest or weed control at 100 ppm [10] of the same compound?
**A.** 0 to 25%

**Q.** What about the pest or weed control at 25 ppm [11] of the same compound?
**A.** 0 to 25%

**Q.** What about the pest or weed control at 100 ppm [12] of the same compound?
**A.** 0 to 25%

**Q.** `Fc1cnc(OCc2ccccc2Cl)nc1NC1CC1` [Compound 807] was tested. Which pest or weed control at 200 ppm (24 h, one day protectant) did it give?
**A.** 76 to 100%

**Q.** For `Fc1cnc(OCc2ccco2)nc1NCc1ccc(Cl)cc1` [Compound 946], which pest or weed control at 50 ppm (24 h, one day protectant) is on record?
**A.** 51 to 75%

**Q.** What about the pest or weed control at 200 ppm (24 h, one day protectant) of the same compound?
**A.** 76 to 100%

**Q.** `CCOC(=O)Nc1nc(OCc2cccc(F)c2)ncc1F` [Compound 633] was tested. Which pest or weed control at 25 ppm [5] did it give?
**A.** 76 to 100%

**Q.** What about the pest or weed control at 100 ppm [6] of the same compound?
**A.** 76 to 100%

**Q.** And the pest or weed control at 25 ppm [7]?
**A.** 76 to 100%

**Q.** What about the pest or weed control at 100 ppm [8] of the same compound?
**A.** 76 to 100%

**Q.** Which results are given for `Fc1cnc(OCc2ccccc2)nc1/N=N/c1ccccn1` [Compound 993]?
**A.** pest or weed control at 25 ppm [1]: 0 to 25%; pest or weed control at 25 ppm [2]: 26 to 50%; pest or weed control at 25 ppm [3]: 0 to 25%; pest or weed control at 100 ppm [4]: 51 to 75%

**Q.** `Nc1nc(Oc2ccc(Cl)nc2)ncc1F` [Compound 549] was tested. Which pest or weed control at 25 ppm [9] did it give?
**A.** 26 to 50%

**Q.** What about the pest or weed control at 100 ppm [10] of the same compound?
**A.** 0 to 25%

**Q.** And the pest or weed control at 25 ppm [11]?
**A.** 0 to 25%

**Q.** And the pest or weed control at 100 ppm [12]?
**A.** 0 to 25%

**Q.** How did the pest or weed control at 25 ppm [13] turn out when `CCCNC(=S)Nc1nc(OCc2ccc(F)cc2)ncc1F` [Compound 37] was run?
**A.** 76 to 100%

**Q.** And the pest or weed control at 100 ppm [14]?
**A.** 76 to 100%

**Q.** What about the pest or weed control at 25 ppm [15] of the same compound?
**A.** 76 to 100%

**Q.** And the pest or weed control at 100 ppm [16]?
**A.** 76 to 100%

**Q.** For `Fc1cnc(OCc2cc(Cl)cc(Cl)c2)nc1NC1CC1` [Compound 870], which pest or weed control at 200 ppm (24 h, one day protectant) is on record?
**A.** 76 to 100%

**Q.** What does the source list for `Fc1cccc(COc2ncc(F)c(NCOCc3ccccc3)n2)c1` [Compound 458]?
**A.** pest or weed control at 25 ppm [9]: 0 to 25%; pest or weed control at 100 ppm [10]: 51 to 75%; pest or weed control at 25 ppm [11]: 0 to 25%; pest or weed control at 100 ppm [12]: 0 to 25%
